The target in the assay is mushroom tyrosinase (Agaricus bisporus, UniProt C7FF04). In words: Kinetic analysis. It counts as biochemical.

One may read the Ki as a measure of affinity in units of concentration, obtained from inhibition or displacement.

mushroom tyrosinase, sequence (C7FF04 1-392): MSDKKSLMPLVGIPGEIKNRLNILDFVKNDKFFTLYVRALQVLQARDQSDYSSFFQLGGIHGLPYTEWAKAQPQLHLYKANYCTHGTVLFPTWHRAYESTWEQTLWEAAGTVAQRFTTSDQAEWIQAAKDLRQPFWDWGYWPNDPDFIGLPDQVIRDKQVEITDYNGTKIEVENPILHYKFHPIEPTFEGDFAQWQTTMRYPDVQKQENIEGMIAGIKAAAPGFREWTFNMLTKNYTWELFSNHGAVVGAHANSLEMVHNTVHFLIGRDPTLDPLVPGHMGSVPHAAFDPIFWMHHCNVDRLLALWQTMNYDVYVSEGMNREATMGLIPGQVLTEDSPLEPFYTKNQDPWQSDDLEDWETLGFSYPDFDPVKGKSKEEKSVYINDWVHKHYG

`O=[N+]([O-])c1cccc(-c2oc3cc(Br)cc(Br)c3c(=S)c2O)c1` [2n, 5,7-Dibromo-3-hydroxy-2-(3-nitrophenyl)-4H-chromene-4-thione] showed a Ki of 1.98 µM. Further, the mode of inhibition result (Lineweaver–Burk plot, Km increased, Vmax constant) is “competitive”.

The values are drawn from article PMC9134403 (ACS Omega, 2022).
